The values that follow come from US20240393340A1, “PROGNOSIS AND PREDICTIVE BIOMARKERS AND BIOLOGICAL APPLICATIONS THEREOF” (INSTITUT GUSTAVE ROUSSY, priority 2013, published 2024).

For assay [1], the system named is A2058. Nature of the assay: Short-term growth-inhibition assay (Example 1). The format is cell-based. The conditions noted are these: A2058; short-term and long-term proliferation assays, Example 1. The procedure: (§1) FIGS. 1A-1B: Short-term growth-inhibition assay of a panel of melanoma cell lines including BRAF (V600E) cell lines and an NRAS (Q61R) mutated cell line. FIG. 1A. Cells were treated with increasing concentrations of N-[3-[(5-Chloro-1H-pyrrolo[2,3-b]pyridin-3-yl)carbonyl]-2,4-difluorophenyl]-1-propanesulfonamide (PLX-4720) for 72 h and cell viability was determined using CellTiter-Blue by measuring the absorbance at 540 nm in a microplate reader. Error bars show data +standard error. Means were derived from four replicates (n=4). FIG. 1B. Long-term colony formation assay of the indicated cells. Cells were grown in the absence or presence of PLX-4720 at the indicated concentrations for 15-20 days. For each cell line, all dishes were fixed at the same time, stained and photographed. […]
(§2) The inventors quantified the effect of exposing these cell lines to PLX-4720 on the half-maximum inhibitory concentration (IC50) (Table 1).

Assay [2] concerns Mel624. Nature of the assay: Short-term growth-inhibition assay (Example 1). The format is cell-based. The conditions noted are these: Mel624; short-term and long-term proliferation assays, Example 1. How it is done: as §1, §2
For a further assay, the system named is A375. Description: WST-1 cell proliferation assay (Example 2). It counts as cell-based. The procedure:
(§3) Cell viability was determined using the WST-1 cell proliferation assay. Data are means±s.d. (n=3). FIG. 7B: Long-term colony formation assay of the indicated cell lines. Cells were grown in the absence or presence of vemurafenib at the indicated concentrations for two weeks. For each cell line, all dishes were fixed at the same time, stained and photographed.
(§4) Cell proliferation was measured using a WST-1 reagent (Roche Applied Science, IN, USA). Melanoma cells were plated (5000 cells per well) in 96-well tissue culture plates. After 24 h, the cells were treated with drugs or DMSO at the indicated concentrations, in triplicates. WST-1 reagent was added to the wells and incubated at 37° C. for 2 h before and after the treatment period of 48 h. […] Cell proliferation is expressed as percent of the absorbance compared to mock-treated cells.
For orientation: Formazan colour is commonly taken as a measure of viable cells.

The subject of another assay is Mel10. Description: WST-1 cell proliferation assay (Example 2). The format is cell-based. How it is done: as §3, §4
The next assay relates to Mel888. Description: WST-1 cell proliferation assay (Example 2). The format is cell-based. How it is done: as §3, §4
A further assay concerns SKMEL 28. Description: WST-1 cell proliferation assay (Example 2). The format is cell-based. How it is done:
as §3, §4

Assay [3] has as its system A2058. Nature of the assay: WST-1 cell proliferation assay (Example 2). It counts as cell-based. The conditions noted are these: for pIC50: A2058, 48 h; for sensitivity of the cell line compared to other cell lines (e.g. A375, Mel888): A2058, short-term and long-term proliferation assays, Example 2. The procedure:
as §3
(§5) Cell viability was determined using the WST-1 cell proliferation assay. Data are means±s.d. (n=4). […] The upper left region of the figure represents increasing degrees of synergy. The minimum and maximum Bliss index values were shown as an interval within square brackets under each isobologram. The Bliss index was calculated as the ratio Observed/Expected where an index=1, […] and >1 indicates additive, antagonistic and synergistic effects, respectively.
as §4
(§6) For clonogenic assays, cells were plated at low density (1×10^3 cells per well in a 6-well tissue culture plates) in fresh media. After 24 h, cells were treated with drugs or DMSO at the indicated concentrations, in duplicates. After 14 days cells were stained with 0.5% (w/v) crystal violet in 70% ethanol and the number of colonies was counted.

The subject of assay [4] is Mel624. Description: WST-1 cell proliferation assay (Example 2). The conditions noted are these: for sensitivity of the cell line compared to other cell lines (e.g. A375, Mel888): Mel624, short-term and long-term proliferation assays, Example 2. The format is cell-based. How it is done: as §3, §5, §4, §6
The next assay deals with melanoma. The conditions noted are these: patients, cited from earlier work.
Where [5] appears, read: Homo sapiens, A-375, A375, 48 h, read-out: IC50.
Setting [6] is: Homo sapiens, SK-MEL-28, SKMEL 28, 48 h, read-out: IC50.

pIC50: −log10 of the molar value. Like-named read-outs stand apart in the source and are kept apart here.

Consider `O=C(O)C(Cc1ccccc1[N+](=O)[O-])=NNc1nc(-c2ccc(Cl)c(Cl)c2)cs1` (mixture of isomers) [4EGi-1], for which the “sensitivity of the cell line compared to the other BRAF (V600E)-mutated melanoma cell lines” value in the assay with A2058 [1] and with Mel624 [2] was “more sensitive” throughout. Moreover, the pIC50 in the assay on A375 (A375, 48 h, read-out: IC50) is < 4.00; in the assay with Mel10 (MEL10, 48 h, read-out: IC50) it was < 4.00; in the assay on Mel888 (Mel888, 48 h, read-out: IC50), 4.11; with SKMEL 28 (SKMEL 28, 48 h, read-out: IC50), < 4.00; with A2058 [3] (read-out: IC50) it was 4.30; in the assay on Mel624 [4] (Mel624, 48 h, read-out: IC50), 4.59. Further, the “sensitivity of the cell line compared to other cell lines (e.g. A375, Mel888)” value with A2058 [3] and with Mel624 [4] was “more sensitive” each time.

For the molecule `Nc1ncnc2n[nH]c(Nc3ccc(F)cc3)c12` [CGP 57380], the pIC50 in the assay with A375 (A375, 48 h, read-out: IC50) was 4.46; with Mel10 (MEL10, 48 h, read-out: IC50), 4.55; in the assay on Mel888 (Mel888, 48 h, read-out: IC50), 4.60; in the assay on SKMEL 28 (SKMEL 28, 48 h, read-out: IC50) it was 4.22; in the assay with A2058 [3] (read-out: IC50) it was < 4.00; in the assay on Mel624 [4] (Mel624, 48 h, read-out: IC50), < 4.00. Moreover, the “sensitivity of the cell line compared to other cell lines (e.g. A375, Mel888)” value in the assay with A2058 [3] and with Mel624 [4] was “less sensitive” throughout.

In the case of `O=C(NOC[C@H](O)CO)c1ccc(F)c(F)c1Nc1ccc(I)cc1F` [PD 0325901], the pIC50 in the assay on A375 (setting [5]) was 8.00; in the assay on Mel10 (MEL10, 48 h, read-out: IC50) it was 8.52; in the assay on Mel888 (Mel888, 48 h, read-out: IC50), 8.70; in the assay with SKMEL 28 (setting [6]), 8.05; in the assay on A2058 [3] (Homo sapiens, read-out: IC50) it was 7.48; in the assay with Mel624 [4] (Mel624, 48 h, read-out: IC50), 7.02. The “sensitivity of the cell line compared to other cell lines (e.g. A375, Mel888)” value in the assay with A2058 [3] and in the assay with Mel624 [4] was “less sensitive” each time.

Take `COC(=O)[C@H]1[C@@H](O)[C@@]2(O)c3c(OC)cc(O[C@@H]4O[C@@H]([C@H](O)CO)CO[C@H]4OC)cc3O[C@@]2(c2ccc(OC)cc2)[C@@H]1c1ccccc1` [Silvestrol]: the pIC50 was 7.68 in the assay on A375 (Homo sapiens, A-375, 48 h); 7.34 in the assay with Mel10 (48 h); 7.77 with Mel888 (48 h); 8.52 in the assay with SKMEL 28 (Homo sapiens, SK-MEL-28, 48 h); 8.70 with A2058 [3] (Homo sapiens); 8.40 in the assay on Mel624 [4] (48 h).

Consider `CCCS(=O)(=O)Nc1ccc(F)c(C(=O)c2c[nH]c3ncc(-c4ccc(Cl)cc4)cc23)c1F` [Vemurafenib], for which the pIC50 was 6.40 in the assay on A375 (setting [5]); < 5.00 in the assay on Mel10 (MEL10, 48 h, read-out: IC50); 7.00 with Mel888 (Mel888, 48 h, read-out: IC50); 6.40 in the assay with SKMEL 28 (setting [6]); 5.62 in the assay on A2058 [3] (Homo sapiens, read-out: IC50); 5.70 in the assay on Mel624 [4] (Mel624, 48 h, read-out: IC50).

`CC(C)(C)c1nc(-c2cccc(NS(=O)(=O)c3c(F)cccc3F)c2F)c(-c2ccnc(N)n2)s1` [dabrafenib]: the “response rate (objective responses)” value in the assay on melanoma was 50%. In the assay on melanoma (compared with chemotherapy), the progression-free survival is 5.1 months. For the same molecule, the “progression-free survival hazard ratio” value in the assay with melanoma (versus chemotherapy) is 0.30.

In general, pIC50 refers to the negative decadic logarithm of the IC50, by convention in mol/L.
